The source of these data is patent US20120149631A1 (priority 2009, published 2012).

Assay [1] relates to K12 E. coli (ATCC #25404).
For assay [2], the system named is A. actinomycetemcomitans Y4.
Assay [3] concerns E. coli (ATCC 25922). The following applies: cited from earlier work.
Assay [4] has as its system P. aeruginosa. The following applies: P. aeruginosa (ATCC 27853); cited from earlier work.
The subject of assay [5] is A. actinomycetemcomitans. As to the kind of experiment: microbe, parasite or virus in culture. The format is cell-based.
In assay [6] the test system is F. novicida biofilm. The format is cell-based, F. novicida (F. tularensis novicida).
The subject of assay [7] is F. novicida. The note with it: 24 h.
Assay [8] concerns A. actinomycetemcomitans. The note with it: cited from earlier work.
Assay [9] relates to P. aeruginosa biofilms. The following applies: Overhage 2008; cited from earlier work.
Setting [10] is: read-out: EC50 uM, E. coli, 3 h incubation, CFU enumeration.
Setting [11] is: Aggregatibacter actinomycetemcomitans.
[12] abbreviates: Aggregatibacter actinomycetemcomitans, read-out: EC50 in μM.

In brackets after ≈: the same amount, converted by molar mass. Where two headings read alike, the source gives them in different places. No end group written: not given here. Bounds are passed on as bounds.

As usually defined, the EC50 is the concentration needed to bring the measured effect to its halfway point. In the case of KRAKKFFKKLK-NH2 [ATRA-1A], in [1] (setting [10]), the EC50 was determined as 0.659 µM.

In turn, GGLRSLGRKILRAWKKYGPIIVPIIRIG [BMAP-28] yielded an EC50 in [2] (24 h) of 0.215 µM.

A word on the MIC: it is the least concentration at which growth counts as inhibited. Regarding “GLLSRLRDFLSDRGRRLGEKIERIGQKIKDLSEFFQS [PMAP-37]”, the EC50 in assay [2] (24 h) came out at 1.25 µM. The MIC in [3] was 1 µM; in [4], 4 µM.

For the compound “RLKELITTGGQKIGEKIRRIGQRIKDFFKNLQPREEKS [K9CATH]”, in assay [2] (24 h), the midpoint of the response, the EC50, lay at 0.111 µM.

As for `CC1(C)S[C@@H]2[C@H](NC(=O)[C@H](N)c3ccc(O)cc3)C(=O)N2[C@H]1C(=O)O` [amoxicillin], the EC50 in [5] (setting [11]) is 29.6 µg/mL; in [5] (setting [12]), 80.9 µM.

With KRFKKFFKKPK-NH2 [ATRA-1P], in [1] (setting [10]), the EC50 turned out to be 4.76 µM.

For the compound “hBD-4: antimicrobial listed in Table 6, not further described (EFELDRICGYGTARCRKKCRSQEYRIGRCPNTYACCLRKWDESLLNRTKP; UniProt Q8WTQ1 23-72, looked up)”, the “EC50 (μg/mL)” value in assay [2] was at least 100 µg/mL. In assay [2] (read-out: EC50 in μM), the concentration for a half-maximal effect (EC50) was over 22.9 µM.

On to gentamicin, for which the “EC50 (μg/mL)” value in [5] turned out to be 1.597 µg/mL. For the same compound, the concentration for a half-maximal effect (EC50) in [5] (read-out: EC50) was 3.34 µM.

Consider `CC[C@H](C)[C@H](NC(=O)[C@H](CCCCN)NC(=O)[C@H](CCC(=O)O)NC(=O)[C@H](CCCCN)NC(=O)[C@H](CO)NC(=O)[C@H](CCCCN)NC(=O)[C@H](CCCNC(=N)N)NC(=O)[C@H](Cc1ccccc1)NC(=O)[C@H](Cc1ccccc1)NC(=O)[C@H](CC(=O)O)NC(=O)CNC(=O)[C@H](CC(C)C)NC(=O)[C@@H](N)CC(C)C)C(=O)NCC(=O)N[C@@H](CCCCN)C(=O)N[C@@H](CCC(=O)O)C(=O)N[C@@H](Cc1ccccc1)C(=O)N[C@@H](CCCCN)C(=O)N[C@@H](CCCNC(=N)N)C(=O)N[C@H](C(=O)N[C@H](C(=O)N[C@@H](CCC(N)=O)C(=O)N[C@@H](CCCNC(=N)N)C(=O)N[C@H](C(=O)N[C@@H](CCCCN)C(=O)N[C@@H](CC(=O)O)C(=O)N[C@@H](Cc1ccccc1)C(=O)N[C@@H](CC(C)C)C(=O)N[C@@H](CCCNC(=N)N)C(=O)N[C@@H](CC(N)=O)C(=O)N[C@@H](CC(C)C)C(=O)N[C@H](C(=O)N1CCC[C@H]1C(=O)N[C@@H](CCCNC(=N)N)C(=O)N[C@H](C(=O)N[C@@H](CCC(=O)O)C(=O)N[C@@H](CO)C(=O)O)[C@@H](C)O)C(C)C)[C@@H](C)CC)C(C)C)[C@@H](C)CC` [LL-37], for which, in [6], the “concentration with significant inhibition of biofilm formation” value is at most 3.8 ng/mL. The inhibition of growth result in assay [6] is “no inhibition of growth”. Besides, in [2], the “EC50 ug/mL” value stood at 6.24 µg/mL (≈ 1.39 µM). The EC50 in [2] was determined as 6.224 µg/mL; in [2] (24 h) it was 1.39 µM; in assay [1] (E. coli K12) it was 0.519 µg/mL; in assay [1] (E. coli, 3 h incubation, CFU enumeration), 0.514 µg/mL; in assay [1] (setting [10]) it was 0.114 µM. In addition, the “EC50 (μg/mL)” value in assay [2] was found to be 6.244 µg/mL (≈ 1.39 µM). Besides, in assay [7], the MIC entry is given as “greater than 250 μg/ml”. The ED99 in [8] was 8.2 µg/mL. Further, in assay [8], the MBC result is listed as “above 100 μg/mL”. Besides, the “concentration inhibiting formation of biofilms” value in assay [9] is 0.05 µg/mL.

For the compound `Cc1ncc([N+](=O)[O-])n1CCO` [metronidazole], the EC50 in assay [5] (setting [11]) came to 19.5 µg/mL; in assay [5] (setting [12]), 114 µM.

For the compound `CC[C@H]1OC(=O)[C@H](C)[C@@H](O[C@H]2C[C@@](C)(OC)[C@@H](O)[C@H](C)O2)[C@H](C)[C@@H](O[C@@H]2O[C@H](C)C[C@H](N(C)C)[C@H]2O)[C@](C)(O)C[C@@H](C)CN(C)[C@H](C)[C@@H](O)[C@]1(C)O` [azithromycin], the EC50 turned out to be 34.4 µg/mL in assay [5] (setting [11]) and 45.9 µM in assay [5] (setting [12]).

With `CC1(C)S[C@@H]2[C@H](NC(=O)[C@H](N)c3ccccc3)C(=O)N2[C@H]1C(=O)O` [ampicillin], the EC50 turned out to be 75 µg/mL in [5] (setting [11]) and 215 µM in assay [5] (setting [12]).

`CCC[C@@H]1C[C@@H](C(=O)N[C@@H]([C@H]2O[C@H](SC)[C@H](O)[C@@H](O)[C@H]2O)[C@H](C)Cl)N(C)C1` [clindamycin]: the EC50 in assay [5] (setting [11]) is over 250 µg/mL; in assay [5] (setting [12]), over 542 µM.

“GLRKRLRKFRNKIKEKLKKIGQKIQGLLPKLAPRTDY [CAP-18]” came in with an EC50 in [2] (24 h) of 1.59 µM.
